We go through five molecules from patent US9725442B2, “Heterocyclic derivative having PGD2 receptor antagonist activity” (Shionogi & Co., Ltd., priority 2011, dated 2017).

One may read the Ki as the dissociation constant of the complex between target and ligand, obtained from inhibition or displacement. One may read the bioavailability as the share of a dose that reaches the circulation, judged against a reference dose that is usually intravenous. Low readings indicate little systemic uptake, high ones much systemic uptake.

For one data set, the target named is CYP3A4 (Homo sapiens (Human), UniProt P08684). Description: CYP inhibition test, terfenedine hydroxylation. Type of data set: in vitro ADME. The note with it: pooled human hepatic microsome, 1 μmol/L terfenedine. From the text: (§1) Using commercially available pooled human hepatic microsome, and employing, as markers, 7-ethoxyresorufin O-deethylation (CYP1A2), tolbutamide methyl-hydroxylation (CYP2C9), mephenyloin 4′-hydroxylation (CYP2C19), dextromethorphan O-demethylation (CYP2D6), and terfenedine hydroxylation as typical substrate metabolism reactions of human main five CYP enzyme forms (CYP1A2, 2C9, 2C19, 2D6, 3A4), an inhibitory degree of each metabolite production amount by a compound of the present compound was assessed.
Chain of CYP3A4 (P08684 whole entry): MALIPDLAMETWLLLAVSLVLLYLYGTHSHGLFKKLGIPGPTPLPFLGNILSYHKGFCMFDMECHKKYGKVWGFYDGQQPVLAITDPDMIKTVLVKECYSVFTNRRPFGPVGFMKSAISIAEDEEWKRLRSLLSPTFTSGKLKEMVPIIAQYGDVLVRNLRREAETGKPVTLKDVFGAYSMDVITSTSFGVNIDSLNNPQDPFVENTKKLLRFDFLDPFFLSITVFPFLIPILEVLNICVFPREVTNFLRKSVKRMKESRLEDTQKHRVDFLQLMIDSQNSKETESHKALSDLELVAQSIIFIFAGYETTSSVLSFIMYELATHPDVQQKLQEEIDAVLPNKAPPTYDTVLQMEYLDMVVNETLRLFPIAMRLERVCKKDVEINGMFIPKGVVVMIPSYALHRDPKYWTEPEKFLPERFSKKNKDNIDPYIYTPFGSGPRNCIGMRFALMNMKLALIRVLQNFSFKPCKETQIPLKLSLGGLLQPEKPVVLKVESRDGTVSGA
(§2) The reaction conditions were as follows: substrate, 0.5 μmol/L ethoxyresorufin (CYP1A2), 100 μmol/L tolbutamide (CYP2C9), 50 μmol/L S-mephenyloin (CYP2C19), 5 μmol/L dextromethorphan (CYP2D6), 1 μmol/L terfenedine (CYP3A4); reaction time, 15 minutes; reaction temperature, 37° C.; enzyme, pooled human hepatic microsome 0.2 mg protein/mL; concentration of a compound of the present invention, 1, 5, 10, 20 μmol/L (four points).
(§3) Each five kinds of substrates, human hepatic microsome, or a compound of the present invention in 50 mM Hepes buffer as a reaction mixture was added to a 96-well plate at the composition as described above, NADPH, as a cofactor was added to initiate metabolism reactions as markers and. After the incubation at 37° C. for 15 minutes, a methanol/acetonitrile=1/1 (v/v) solution was added to stop the reaction. After the centrifugation at 3000 rpm for 15 minutes, resorufin (CYP1A2 metabolite) in the supernatant was quantified by a fluorescent multilabel counter and tolbutamide hydroxide (CYP2C9 metabolite), mephenyloin 4′ hydroxide (CYP2C19 metabolite), dextrorphan (CYP2D6 metabolite), and terfenadine alcohol (CYP3A4 metabolite) were quantified by LC/MS/MS.

In a further data set the target is CYP1A2 (Homo sapiens (Human), UniProt P05177). The data set is described as follows: CYP inhibition test, 7-ethoxyresorufin O-deethylation. Type of data set: in vitro ADME. As to conditions: pooled human hepatic microsome, 0.5 μmol/L ethoxyresorufin.
Chain of CYP1A2 (P05177 whole entry): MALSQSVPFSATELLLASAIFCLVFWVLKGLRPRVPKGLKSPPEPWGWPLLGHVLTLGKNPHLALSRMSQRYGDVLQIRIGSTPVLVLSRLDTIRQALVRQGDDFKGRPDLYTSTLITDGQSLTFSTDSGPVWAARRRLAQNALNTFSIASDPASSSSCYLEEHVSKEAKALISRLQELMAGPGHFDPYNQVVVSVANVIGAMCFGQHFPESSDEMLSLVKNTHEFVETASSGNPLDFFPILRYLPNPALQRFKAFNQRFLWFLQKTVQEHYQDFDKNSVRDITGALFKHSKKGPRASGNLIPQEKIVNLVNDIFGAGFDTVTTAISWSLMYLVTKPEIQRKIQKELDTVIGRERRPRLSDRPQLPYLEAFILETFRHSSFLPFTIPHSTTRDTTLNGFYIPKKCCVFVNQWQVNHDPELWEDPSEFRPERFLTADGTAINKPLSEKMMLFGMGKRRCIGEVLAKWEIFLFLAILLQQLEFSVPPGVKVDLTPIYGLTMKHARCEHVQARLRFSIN
Text: as §1, §2, §3

For another data set, the target named is CRTH2 (Homo sapiens (Human), UniProt Q9Y5Y4). Description: CRTH2 receptor binding inhibitory activity ([3H]-PGD2 displacement, membranes of CRTH2-expressing K562 cell). The note with it: [3H]-PGD2 displacement, membrane of CRTH2-expressing K562 cell, read-out: Ki. In short, it runs like this: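 CRTH2-expressing K562 membranes (20 μg/well) in 50 mM Tris/HCl pH 7.4 with 10 mM MgCl2 were incubated with [3H]-PGD2 for 60 min at room temperature, then filtered.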
Chain of CRTH2 (Q9Y5Y4 whole entry): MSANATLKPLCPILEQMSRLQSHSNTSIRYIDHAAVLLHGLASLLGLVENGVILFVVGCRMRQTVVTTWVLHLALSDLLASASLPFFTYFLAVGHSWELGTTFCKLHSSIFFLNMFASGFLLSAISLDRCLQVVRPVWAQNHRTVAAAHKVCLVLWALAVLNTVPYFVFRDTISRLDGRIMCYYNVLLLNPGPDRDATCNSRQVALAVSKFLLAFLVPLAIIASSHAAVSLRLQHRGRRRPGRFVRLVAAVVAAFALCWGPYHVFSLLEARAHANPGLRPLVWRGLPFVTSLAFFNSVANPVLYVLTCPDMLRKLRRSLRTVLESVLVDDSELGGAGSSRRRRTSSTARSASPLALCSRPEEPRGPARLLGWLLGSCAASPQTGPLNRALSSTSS

The target of another data set is DP receptor (Homo sapiens (Human), UniProt Q13258). Description: DP inhibitory activity in human platelets (PGD2-induced cAMP increase in platelet rich plasma, HTRF). In kind it is cell-based. As to conditions: IC50 of PGD2 (300 nM)-induced cAMP increase, read-out: PRP. The method, then: Thirty milliliter of blood was drown from healthy human into a syringe preloaded with 1/9 volume of 3.8% citrate sodium. The blood was centrifuged with 180 g for 10 min at room temperature and the upper plasma layer was collected as platelet rich plasma (PRP). The PRP was transferred to plate and treated with 3-isobutyl-1-methylxanthin (IBMX; […]) for 5 min. Then the compounds of the present invention were added to the plate and after 10 min, 300 nM of PGD2 was added. The reaction was stopped with 1 mmol/l hydrogenchlolide after 2 min of PGD2 addition, and platelet was lysed by adding 12% Triton X-100. The concentration of cAMP in the supernatant of the platelet lysate was quantified using homogenous time resolved fluorescence (HTRF). Inhibition ratio was defined by cAMP increase with and without compound, and […] for each compound was calculated from inhibitory curve.
Chain of DP receptor (Q13258 whole entry): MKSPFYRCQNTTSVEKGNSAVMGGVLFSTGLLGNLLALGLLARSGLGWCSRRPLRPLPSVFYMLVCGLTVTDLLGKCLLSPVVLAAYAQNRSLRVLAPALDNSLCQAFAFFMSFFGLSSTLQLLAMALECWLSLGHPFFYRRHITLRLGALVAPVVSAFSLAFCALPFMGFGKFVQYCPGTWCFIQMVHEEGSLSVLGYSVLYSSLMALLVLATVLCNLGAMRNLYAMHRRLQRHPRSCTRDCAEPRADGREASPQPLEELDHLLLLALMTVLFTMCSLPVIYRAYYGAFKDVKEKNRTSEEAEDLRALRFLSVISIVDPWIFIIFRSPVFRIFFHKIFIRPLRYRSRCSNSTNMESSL
A general note: Time-resolved FRET reads energy transfer from a long-lived donor to a nearby acceptor.

The next data set addresses CYP2C9 (Homo sapiens (Human), UniProt P11712). The data set is described as follows: CYP inhibition test, tolbutamide methyl-hydroxylation. As to conditions: pooled human hepatic microsome, 100 μmol/L tolbutamide. In kind it is in vitro ADME.
Text: as §1, §2, §3

Another data set deals with CYP2C19 (Homo sapiens (Human), UniProt P33261). Description: CYP inhibition test, mephenyloin 4'-hydroxylation. Type of data set: in vitro ADME. As to conditions: pooled human hepatic microsome, 50 μmol/L S-mephenyloin.
Chain of CYP2C19 (P33261 whole entry): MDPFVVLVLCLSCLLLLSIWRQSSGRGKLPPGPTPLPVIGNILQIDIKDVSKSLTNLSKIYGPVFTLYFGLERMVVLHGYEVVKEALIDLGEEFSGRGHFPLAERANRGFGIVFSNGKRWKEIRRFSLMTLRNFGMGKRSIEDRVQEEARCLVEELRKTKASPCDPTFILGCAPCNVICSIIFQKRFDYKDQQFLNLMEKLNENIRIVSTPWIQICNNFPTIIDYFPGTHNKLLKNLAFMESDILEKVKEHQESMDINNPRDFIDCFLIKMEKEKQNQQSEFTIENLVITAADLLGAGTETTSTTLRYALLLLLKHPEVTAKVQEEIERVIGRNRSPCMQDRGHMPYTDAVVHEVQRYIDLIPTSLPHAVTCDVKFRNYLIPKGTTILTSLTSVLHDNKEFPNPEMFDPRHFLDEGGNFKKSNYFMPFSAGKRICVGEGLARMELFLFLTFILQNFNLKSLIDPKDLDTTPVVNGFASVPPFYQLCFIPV
Text: as §1, §2, §3

Data set [1] in a line: BA test (oral absorbability). As to conditions: rat, plasma; Rats, Oral administration 1 mg/kg. Type of data set: in vivo. As for the experimental part:
An experimental material and a method for examining oral absorbability • (1) Animals used: rats or mice were used. • (2) Breeding condition: chow and sterilized tap water were allowed to be taken in freely. • (3) Setting of a dosage and grouping: a predetermined dosage was administered orally or intravenously. Groups were formed as shown below. (A dosage varied depending on each compound) Oral administration 1-30 mg/kg (n=2 to 3) Intravenous administration 0.5-10 mg/kg (n=2 to 3) • (4) Preparation of administered liquid: In oral administration, a solution or suspension was administered. […] In intravenous administration, administration from the caudal vein was conducted using a syringe with an injection needle. • (6) Evaluation item: Blood was chronologically collected, and then the concentration of a compound of the present invention blood plasma was measured using a LC/MS/MS. • (7) Statistical analysis: With regard to a shift in plasma concentration, the plasma concentration-time area under the curve (AUC) was calculated using a nonlinear least-squares program WinNonlin®. Bioavailability (BA) was calculated from the AUCs of the oral administration group and the intravenous administration group, respectively. […]

The nature of data set [2]: Metabolism stability test. Type of data set: in vitro ADME. The note with it: human liver microsomes, 30 minutes, 37° C., NADPH, 0.5 μmol/L of the compound. The method, then: Using a commercially available pooled human hepatic microsomes, a compound of the present invention was reacted for a constant time, a remaining rate was calculated by comparing a reacted sample and an unreacted sample, thereby, a degree of metabolism in liver was assessed.
A reaction was performed (oxidative reaction) at 37° C. for 0 minute or 30 minutes in the presence of 1 mmol/L NADPH in 0.2 mL of a buffer (50 mmol/L Tris-HCl pH 7.4, 150 mmol/L potassium chloride, 10 mmol/L magnesium chloride) containing 0.5 mg protein/mL of human liver microsomes. After the reaction, 50 μL of the reaction mixture was added to 100 μL of a methanol/acetonitrile=1/1 (v/v), mixed and centrifuged at 3000 rpm for 15 minutes. The compound of the present invention in the supernatant was quantified by LC/MS/MS, and a remaining amount of the compound of the present invention after the reaction was calculated, letting a compound amount at 0 minute reaction time to be 100%. Glucuronidation reaction was in the presence of 5 mM UDP-glucuronic acid in place of NADPH, followed by similar operations.
On the technique in general: Liver microsomes are a subcellular fraction often used to study metabolism.

The mark [3] stands for this setting: CRTH2 receptor binding, categorized AAAA/AAA.

Molecules are shown by their SMILES. Where two headings read alike, the source gives them in different places. A value given as a limit tells only on which side of the number the result lay.

Chain of CYP2C9 (P11712 whole entry): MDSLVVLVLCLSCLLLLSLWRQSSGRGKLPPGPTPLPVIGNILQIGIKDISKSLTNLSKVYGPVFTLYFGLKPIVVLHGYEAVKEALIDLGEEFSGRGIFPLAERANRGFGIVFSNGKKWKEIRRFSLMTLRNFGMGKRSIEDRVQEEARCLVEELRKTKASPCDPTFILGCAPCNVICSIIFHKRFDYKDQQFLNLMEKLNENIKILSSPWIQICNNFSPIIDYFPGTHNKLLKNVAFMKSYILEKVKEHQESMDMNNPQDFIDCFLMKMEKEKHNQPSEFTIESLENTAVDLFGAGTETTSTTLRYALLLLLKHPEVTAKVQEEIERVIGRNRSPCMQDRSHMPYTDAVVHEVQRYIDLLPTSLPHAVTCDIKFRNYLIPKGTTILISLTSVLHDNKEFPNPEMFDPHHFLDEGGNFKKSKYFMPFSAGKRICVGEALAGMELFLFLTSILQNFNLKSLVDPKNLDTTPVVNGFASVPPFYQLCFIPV

Regarding `CC(C)Oc1ccc(S(=O)(=O)N2C[C@H](n3nc(CC(=O)O)c4ccc(F)cc43)C[C@H]2C#N)cc1` [Compound I-7], the IC50 against CYP3A4 was > 20 µM; against CYP1A2, > 20 µM; at DP receptor, 0.026 µM; at CYP2C9, > 20 µM; on CYP2C19 it was > 20 µM. In addition, the Ki on CRTH2 (setting [3]) is < 0.1 µM.

Molecule `CC(C)Oc1ccc(S(=O)(=O)N2C[C@@H](C)[C@@H](n3nc(CC(=O)O)c4ccc(F)cc43)C2)cc1` [Compound I-37] gave a bioavailability in data set [1] of 71%. In addition, the IC50 was > 20 µM on CYP3A4; > 20 µM at CYP1A2; 0.071 µM on DP receptor; > 20 µM at CYP2C9; > 20 µM at CYP2C19. Besides, the Ki at CRTH2 worked out at 0.0024 µM.

Turning to `CC(C)Oc1ccc(S(=O)(=O)N2C[C@@H](C)[C@@H](n3nc(CC(=O)O)c4ccc(F)cc43)C2)c(F)c1` [Compound I-52], the IC50 against CYP3A4, against CYP1A2, on CYP2C9 and against CYP2C19 was > 20 µM in each case. Further, the “remaining rate after reaction (result heading prints '% inhibition')” value in data set [2] came out at 97.2%. Also, the results for the Ki at CRTH2 (setting [3]) and on CRTH2 were < 0.1 µM and 0.0051 µM, respectively.

Consider `CC(C)Oc1ccc(S(=O)(=O)N2C[C@@H](C)[C@@H](n3nc(CC(=O)O)c4ccc(F)cc43)C2)cn1` [Compound I-57], for which the IC50 at CYP3A4, on CYP1A2, against CYP2C9 and on CYP2C19 was > 20 µM in each case. Further, in data set [2], the “remaining rate after reaction (result heading prints '% inhibition')” value is on record as 86.9%. Moreover, the Ki on CRTH2 (setting [3]) is < 0.1 µM; on CRTH2, 0.0038 µM.

Regarding `CCOc1ccc(S(=O)(=O)N2C[C@@H](C)[C@@H](n3nc(CC(=O)O)c4ccccc43)C2)cn1` [Compound I-96], the bioavailability in data set [1] is 82%. For the same molecule, the IC50 at CYP3A4 is > 20 µM; on CYP1A2, > 20 µM; at DP receptor, 0.068 µM; against CYP2C9, > 20 µM; on CYP2C19, > 20 µM. Further, the “remaining rate after reaction (result heading prints '% inhibition')” value in data set [2] turned out to be 99.3%. The Ki at CRTH2 (setting [3]) is < 0.1 µM; on CRTH2, 0.037 µM.
